Measurements as given in patent EP2881391A1, “Spiroindoline carbocycle derivatives and pharmaceutical compositions thereof” (Bayer Pharma Aktiengesellschaft, priority 2013, dated 2015).
pIC50: −log10 of the molar value.

Biological target: T1, human GnRH receptor (Homo sapiens, UniProt P30968)
T1 construct: line established by Prof; Thomas Gudermann; host or cells: CHO cells
T1 sequence (P30968 1-328): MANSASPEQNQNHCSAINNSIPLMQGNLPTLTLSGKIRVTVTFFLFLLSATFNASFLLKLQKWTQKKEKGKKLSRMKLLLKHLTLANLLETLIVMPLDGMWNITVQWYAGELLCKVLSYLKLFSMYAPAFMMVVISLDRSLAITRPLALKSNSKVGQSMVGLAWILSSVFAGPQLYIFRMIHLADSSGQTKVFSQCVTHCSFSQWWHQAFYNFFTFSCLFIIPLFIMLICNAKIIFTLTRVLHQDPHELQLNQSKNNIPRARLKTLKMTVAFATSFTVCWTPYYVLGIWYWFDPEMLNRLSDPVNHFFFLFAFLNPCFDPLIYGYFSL
Assay: IP-One HTRF assay (inhibition of GnRH-R activation by buserelin)
Assay type: cell-based
Settings: IP-One HTRF assay with buserelin (at EC80) stimulation; CHO cells stably expressing human GnRH receptor; tested 20 µM to 1 nM; read-out: Potency IC50
From the text: By using homogenous time-resolved fluorescence resonance energy transfer (HTRF), the generation of one component of the GnRH-R signalling cascade can be measured. After stimulation of CHO cells stably expressing human GnRH receptor (established by Prof. Thomas Gudermann, currently University of Marburg, Germany; supplied as frozen cell aliquots by Cell Culture Services, Hamburg, Germany) with the EC80 of the GnRH agonist buserelin, Gq protein-coupled receptor signalling cascade is activated resulting in PLC-dependent cleavage of PIP2 to Inositol-1,4,5-triphosphate (IP3) and Diacylglycerol. The second messenger IP3 is degraded intracellularly to myo-inositol. Inhibition of the final degradation step from Inositol-1-phosphate (IP1) to myo-inositol by addition of lithium chloride leads to accumulation of IP1 in the cells. In cell lysates, IP1 can be detected via an antibody-based HTRF detection technology, where IP1 can displace the FRET acceptor IP1-d2 from binding by Terbium-labelled anti-IP1 antibody as donor resulting in a signal decrease. Compounds were tested for their capability of inhibiting GnRH-R activation by buserelin. For all IP-One HTRF® assays reagents of Cisbio Bioassays (IP-One Tb Jumbo kit, #62IPAPEJ; Cisbio Bioassays, Bagnols sur Cèze Cedex, France) were used.
For the assay, frozen cell aliquots were thawed and a cell suspension (3.33x10^6 cells/ml) containing IP1-d2 (dilution 1:40) was prepared and incubated at 37°C. After 1 h 3 µl of the cell suspension were added to 50 nl of a 100-fold concentrated solution of the test compound in DMSO pre-dispensed in a well of a white low-volume 384-well microtiter plate (Greiner Bio-One, Frickenhausen, Germany). The mixture was incubated for 20 min at 22°C to allow for pre-binding of the test compound to the GnRH-R. The receptor signaling cascade was stimulated by addition of 2 µl buserelin or LHRH (at EC50 or EC80) in stimulation buffer (10 mM Hepes pH 7.4, 1 mM CaCl2, 0.5 mM MgCl2, 4.2 mM KCI, 146 mM NaCl, 5.5 mM α-D-Glucose, 0.05% BSA, 125 mM LiCl (final assay concentration 50 mM) in aqua dest.). Plates were incubated for 1 h at 37°C and 5% carbon dioxide before the cells were lysed by adding 3 µl Terbium-labelled anti-IP1 antibody (1:40) diluted in Conjugate & Lysis buffer as supplied with the kit. After an incubation for 1 h at 22°C to enable complete cell lysis and antibody binding to free IP1 or IP1-d2, plates were measured in an HTRF reader, e.g. a RUBYstar, PHERAstar (both BMG Labtechnologies, Offenburg, Germany) or a Viewlux (PerkinElmer LAS, Rodgau-Jügesheim, Germany). From the fluorescence emissions at 665 nm (FRET) and at 620 nm (background signal of Terbium-antibody), the ratio (emission at 665 nm divided by emission at 620 nm) was calculated and the data were normalized (reaction without test compound = 0% inhibition; all other assay components except agonist = 100% inhibition). On the same microtiter plate, compounds were tested at 10 different concentrations in the range of 20 µM to 1 nM (20 µM, 6.7 µM, 2.2 µM, 0.74 µM, 0.25 µM, 82 nM, 27 nM, 9.2 nM, 3.1 nM and 1 nM; dilution series prepared before the assay at the level of the 100-fold conc. stock solutions by serial 1:3 dilutions in 100% DMSO) in duplicate values for each concentration. By using an in-house software, the IC50 values were calculated by a 4 parameter fit. The data reveal that the compounds of the present invention have antagonist activities on the human GnRH receptor. Within the meaning of the present invention the antagonist activity is reflected by the ability of a compound of the invention to antagonize human GnRH receptor stimulation in IP-One HTRF® assay at least three times the standard deviation over the background level.

Row | SMILES | pIC50
1 | O=C(NCc1ncccc1Cl)c1ccc2c(c1)C1(CCC(O)(C(F)(F)F)CC1)C(C1CC1)N2S(=O)(=O)c1ccc(F)cc1 (racemic) [Example 1, N-[(3-chloropyridin-2-yl)methyl]-2'-cyclopropyl-1'-[(4-fluorophenyl)sulfonyl]-4-hydroxy-4-(trifluoromethyl)-1',2'-dihydrospiro[cyclohexane-1,3'-indole]-5'-carboxamide] | 6.45
2 | O=C1CCC2(CC1)c1cc(C(=O)NCc3ccccc3Cl)ccc1N(S(=O)(=O)c1ccc(F)cc1)C2C1CC1 (racemic) [Example 3, N-(2-chlorobenzyl)-2'-cyclopropyl-1'-[(4-fluorophenyl)sulfonyl]-4-oxo-1',2'-dihydrospiro[cyclohexane-1,3'-indole]-5'-carboxamide] | 7.33
3 | COC(=O)c1cccc(NC(=O)c2ccc3c(c2)C2(CCC(O)(C(F)(F)F)CC2)C(C2CC2)N3S(=O)(=O)c2ccc(F)cc2)c1 (racemic) [Example 30, methyl 3-[({2'-cyclopropyl-1'-[(4-fluorophenyl)sulfonyl]-4-hydroxy-4-(trifluoromethyl)-1',2'-dihydrospiro[cyclohexane-1,3'-indol]-5'-yl}carbonyl)amino] benzoate] | 6.64
4 | O=C(NCc1ncccc1Cl)c1ccc2c(c1)C1(CCC(O)(C(F)(F)F)CC1)C(C1CC1)N2S(=O)(=O)c1ccc(F)cc1 (single isomer, unassigned) [Example 1-2] | 6.87
5 | O=C1CCC2(CC1)c1cc(C(=O)NCc3ccccc3Cl)ccc1N(S(=O)(=O)c1ccc(F)cc1)C2C1CC1 (single isomer, unassigned) [Example 3-1] | 7.38
6 | O=C1CCC2(CC1)c1cc(C(=O)NCc3ccccc3Cl)ccc1N(S(=O)(=O)c1ccc(F)cc1)C2C1CC1 (single isomer, unassigned) [Example 3-2] | 5.99
7 | COC(=O)c1cccc(NC(=O)c2ccc3c(c2)C2(CCC(O)(C(F)(F)F)CC2)C(C2CC2)N3S(=O)(=O)c2ccc(F)cc2)c1 (single isomer, unassigned) [Example 30-1] | 6.85
8 | COC(=O)c1cccc(NC(=O)c2ccc3c(c2)C2(CCC(O)(C(F)(F)F)CC2)C(C2CC2)N3S(=O)(=O)c2ccc(F)cc2)c1 (single isomer, unassigned) [Example 30-2] | 5.80
9 | O=C(Nc1ccon1)c1ccc2c(c1)C1(CCC(O)(C(F)(F)F)CC1)C(C1CC1)N2S(=O)(=O)c1ccc(F)cc1 (single isomer, unassigned) [Example 56-1] | 6.67
10 | O=C(Nc1ccon1)c1ccc2c(c1)C1(CCC(O)(C(F)(F)F)CC1)C(C1CC1)N2S(=O)(=O)c1ccc(F)cc1 (single isomer, unassigned) [Example 56-2] | 4.76
11 | O=C(NCc1ccccc1Cl)c1ccc2c(c1)C1(CCC(O)(C(F)(F)F)CC1)C(C1CC1)N2S(=O)(=O)c1ccc(F)cc1 (single isomer, unassigned) [Example 62-1] | 7.00
12 | O=C(NCc1ccccc1Cl)c1ccc2c(c1)C1(CCC(O)(C(F)(F)F)CC1)C(C1CC1)N2S(=O)(=O)c1ccc(F)cc1 (single isomer, unassigned) [Example 62-2] | 5.48
13 | O=C(NCc1ncccc1C(F)(F)F)c1ccc2c(c1)C1(CCC(O)(C(F)(F)F)CC1)C(C1CC1)N2S(=O)(=O)c1ccc(F)cc1 (single isomer, unassigned) [Example 65-2] | 6.94
14 | O=C(NCc1ncccc1C(F)(F)F)c1ccc2c(c1)C1(CCC(O)(C(F)(F)F)CC1)C(C1CC1)N2S(=O)(=O)c1cccc(C(=O)N2CCC2)c1 (single isomer, unassigned) [Example 66-2] | 6.21
15 | O=C(NCc1ccccc1Cl)c1ccc2c(c1)C1(CCC(O)CC1)C(C1CC1)N2S(=O)(=O)c1ccc(F)cc1 (centres unmarked) [Example 2, N-(2-chlorobenzyl)-2'-cyclopropyl-1'-[(4-fluorophenyl)sulfonyl]-4-hydroxy-1',2'-dihydrospiro[cyclohexane-1,3'-indole]-5'-carboxamide] | 7.22
16 | CC1(O)CCC2(CC1)c1cc(C(=O)NCc3ccccc3Cl)ccc1N(S(=O)(=O)c1ccc(F)cc1)C2C1CC1 (centres unmarked) [Example 4, N-(2-chlorobenzyl)-2'-cyclopropyl-1'-[(4-fluorophenyl)sulfonyl]-4-hydroxy-4-methyl-1',2'-dihydrospiro[cyclohexane-1,3'-indole]-5'-carboxamide] | 7.13
17 | O=C(NCc1ccccc1Cl)c1ccc2c(c1)C1(CCC(=NO)CC1)C(C1CC1)N2S(=O)(=O)c1ccc(F)cc1 (centres unmarked) [Example 5, N-(2-chlorobenzyl)-2'-cyclopropyl-1'-[(4-fluorophenyl)sulfonyl]-4-(hydroxyimino)-1',2'-dihydrospiro[cyclohexane-1,3'-indole]-5'-carboxamide] | 7.18
18 | O=C(NCc1ccccc1Cl)c1ccc2c(c1)C1(CCC(F)(F)CC1)C(C1CC1)N2S(=O)(=O)c1ccc(F)cc1 (centres unmarked) [Example 6, N-(2-chlorobenzyl)-2'-cyclopropyl-4,4-difluoro-1'-[(4-fluorophenyl)sulfonyl]-1',2'-dihydrospiro[cyclohexane-1,3'-indole]-5'-carboxamide] | 6.31
19 | O=C(NCc1ncc(C(F)(F)F)cc1Cl)c1ccc2c(c1)C1(CCC(O)CC1)C(C1CC1)N2S(=O)(=O)c1ccc(F)cc1 (centres unmarked) [Example 7, N-{[3-chloro-5-(trifluoromethyl)pyridin-2-yl]methyl}-2'-cyclopropyl-1'-[(4-fluorophenyl)sulfonyl]-4-hydroxy-1',2'-dihydrospiro[cyclohexane-1,3'-indole]-5'-carboxamide] | 7.28
20 | O=C1CCC2(CC1)c1cc(C(=O)NCc3ncc(C(F)(F)F)cc3Cl)ccc1N(S(=O)(=O)c1ccc(F)cc1)C2C1CC1 (centres unmarked) [Example 8, N-{[3-chloro-5-(trifluoromethyl)pyridin-2-yl]methyl}-2'-cyclopropyl-1'-[(4-fluorophenyl)sulfonyl]-4-oxo-1',2'-dihydrospiro[cyclohexane-1,3'-indole]-5'-carboxamide] | 7.24
21 | COC(=O)c1cccc(S(=O)(=O)N2c3ccc(C(=O)NCc4ccccc4Cl)cc3C3(CCCCC3)C2C2CC2)c1 (centres unmarked) [Example 9, methyl 3-({5'-[(2-chlorobenzyl)carbamoyl]-2'-cyclopropylspiro[cyclohexane-1,3'-indol]-1'(2'H)-yl}sulfonyl)benzoate] | 5.64
22 | O=C(O)c1cccc(S(=O)(=O)N2c3ccc(C(=O)NCc4ccccc4Cl)cc3C3(CCCCC3)C2C2CC2)c1 (centres unmarked) [Example 10, 3-({5'-[(2-chlorobenzyl)carbamoyl]-2'-cyclopropylspiro[cyclohexane-1,3'-indol]-1'(2'H)-yl}sulfonyl)benzoic acid] | 6.09
23 | COC(=O)c1cccc(S(=O)(=O)N2c3ccc(C(=O)NCc4ncccc4Cl)cc3C3(CCCCC3)C2C2CC2)c1 (centres unmarked) [Example 11, methyl 3-{[5'-{[(3-chloropyridin-2-yl)methyl]carbamoyl}-2'-cyclopropylspiro[cyclohexane-1,3'-indol]-1'(2'H)-yl]sulfonyl}benzoate] | 5.91
